Assay: Solubility in PGMEA: deposition of crystals from a PGMEA solution allowed to stand at room temperature over night
Type: physicochemical
Conditions: 30% by weight PGMEA solution, room temperature (20° C.) over night
Description: The compound (1-8) was dissolved in PGMEA to prepare a 20% by weight PGMEA solution.
The compound (1-19) was dissolved in PGMEA to prepare a 20% by weight PGMEA solution.
The compound (1-42) was dissolved in PGMEA to prepare a 30% by weight PGMEA solution.
The compound (1-52) was dissolved in PGMEA to prepare a 30% by weight PGMEA solution.
The compound (M1-3) was dissolved in PGMEA to prepare a 10% by weight PGMEA solution. […] It is understood from the comparison between the result and Example 1 that the compound of the invention having an oxycarbonyloxy bonding group instead of an ether bond is excellent in solubility in PGMEA. Furthermore, it is understood from the comparison between Example 5 and Example 6 that the solubility in PGMEA is further enhanced by introducing an ether structure (—O—) to the alkylene in the side chain.

deposition of crystals from PGMEA solution: no deposition of crystals
Compound: C=CC(=O)OCCOCCOC(=O)Oc1ccc(C(=O)Oc2ccc3c(c2)C(C)c2cc(OC(=O)c4ccc(OC(=O)OCCOCCOC(=O)C=C)cc4)ccc2-3)cc1 [Compound 1-42]
